Each compound was assayed against IDO1 (Homo sapiens, UniProt P14902) (assay: IDO1 Human Whole Blood Assay). Details: WBLD taken as whole blood; read-out: WBLD IC50.
Format: cell-based
Description: Compounds to be tested were serially diluted in ten 3-fold steps in DMSO starting from 10 mM. 3 μL of compound dilutions or DMSO alone were then dispensed from the dilution plate into a polypropylene 96-well assay plate containing 97 μL of RPMI medium using an Echo 555 acoustic liquid handler (Labcyte). LPS and IFNγ was prepared in RPMI medium to a 10× of final conc. (1000 ng/mL), final concentration is 100 ng/mL.
Human whole blood was drawn in sodium heparin coated tubes from healthy internal donors. 240 μL of blood was transferred to each of the wells of a v-bottom 96 well plate. 30 μL of compound was transferred from intermediate dilution plate, and incubated for 15 min. 30 μL from stimulants was then transferred to blood and mixed thoroughly. Plate was covered with breathable membrane and incubated at 37° C. for overnight (18 h).
On day 2, isotope labeled standard solutions of kunurenine and tryptophan was made in water at 10× concentration and 30 μL was added to the blood at 3 μM final concentration. The assay plates were centrifuged at 300×G for 10 min with no brake to separate plasma from red blood cells. 60 μL of plasma samples was removed without disturbing red blood cells. Plasma was diluted with RPMI in 1:1 ratio and proteins were precipitated out with two volumes of Acetonitrile. The plates were centrifuged at 4000×G for 60 min. 20 μL of supernatant was carefully transferred to a 384 well plate containing 40 μL of 0.1% formic acid in water and analyzed by LC/MS/MS.
LC/MS/MS analyses were performed using Thermo Fisher's LX4-TSQ Quantum Ultra system. This system consists of four Agilent binary high-performance liquid chromatography (HPLC) pumps and a TSQ Quantum Ultra triple quadrupole MS/MS instrument. For each sample, 5 μL were injected onto an Atlantis T3 column (2.1 mm×150 mm, 3 μm particle size) from Waters. The mobile phase gradient pumped at 0.8 mL/min was used to elute the analytes from the column at 25° C. The elution started at 0% B increasing linearly to 25% B at 6.5 min, holding at 25% for 1 min, re-equilibrating to 10 min. Mobile phase A consisted of 0.1% formic acid in water. Mobile phase B consisted of 0.1% of formic acid in acetonitrile. Data were acquired in positive mode using a HESI interface. The operational parameters for the TSQ Quantum Ultra instrument were a spray voltage of 4000 V, capillary temperature of 380° C., vaporizer temperature 400° C., shealth gas 60 arbitrary units, Aux gas 20 arbitrary units, tube lens 85 and collision gas 1.2 mTorr. SRM chromatograms of kynurenine (Q1: 209.2>Q3:94.0) and internal standard (Q1: 215.3>Q3:98.2) were collected for 90 sec. The peak area was integrated by Xcalibur Quan software. The ratios between the kynurenine generated in the reaction and 2D6-Kynurenine spiked-in internal standard were used to generate percentage inhibition and IC50 values. Compounds were titrated and IC50's were calculated by 4 parameter sigmoidal curve fitting formula.

IDO1, sequence (P14902 whole entry): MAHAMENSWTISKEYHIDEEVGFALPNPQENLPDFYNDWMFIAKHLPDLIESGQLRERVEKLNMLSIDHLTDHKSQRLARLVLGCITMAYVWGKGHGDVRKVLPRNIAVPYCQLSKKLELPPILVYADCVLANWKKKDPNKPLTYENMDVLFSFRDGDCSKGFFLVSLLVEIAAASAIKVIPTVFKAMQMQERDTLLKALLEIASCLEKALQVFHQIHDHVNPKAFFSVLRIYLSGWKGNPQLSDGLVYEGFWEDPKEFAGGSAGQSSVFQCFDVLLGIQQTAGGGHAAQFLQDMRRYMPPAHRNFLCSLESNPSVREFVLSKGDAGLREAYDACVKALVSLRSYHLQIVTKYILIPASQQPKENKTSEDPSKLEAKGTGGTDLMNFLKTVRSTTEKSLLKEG

| IC50 [nM] | Compound |
| --- | --- |
| 64 | Cc1ccccc1OC1CCN(C(=O)Cn2nc(C(=O)N3CCC(O)CC3)c3c2CCCC3)CC1 [Example 18, 2-(3-(4-hydroxypiperidine-1-carbonyl)-4,5,6,7-tetrahydro-1H-indazol-1-yl)-1-(4-(o-tolyloxy)piperidin-1-yl)ethanone] |
| 396 | Cc1ccccc1NC1CCN(C(=O)Cn2nc(C(=O)N3CCC(F)(CO)CC3)c3c2C[C@H]2C[C@@H]32)CC1 [Example 176, 2-((3bR,4aR)-3-(4-Fluoro-4-(hydroxymethyl)piperidine-1-carbonyl)-3b,4,4a,5-tetrahydro-1H-cyclopropa[3,4]cyclopenta[1,2-c]pyrazol-1-yl)-1-(4-(o-tolylamino)piperidin-1-yl)ethan-1-one] |
| 13 | Cc1ccccc1OC1CCN(C(=O)Cn2nc(C(=O)N3CCN(C(=O)CO)CC3)c3c2C[C@H]2C[C@@H]32)CC1 [Example 2, 2-Hydroxy-1-(4-((3bR,4aR)-1-(2-oxo-2-(4-(o-tolyloxy)piperidin-1-yl)ethyl)-3b,4,4a,5-tetrahydro-1H-cyclopropa[3,4]cyclopenta[1,2-c]pyrazole-3-carbonyl)piperazin-1-yl)ethanone] |
| 114 | Cc1ccccc1OC1CCN(C(=O)Cn2nc(C(=O)N3CC[C@H](O)C[C@@H]3C)c3c2CCCC3)CC1 [Example 17, 2-(3-((2S,4S)-4-hydroxy-2-methylpiperidine-1-carbonyl)-4,5,6,7-tetrahydro-1H-indazol-1-yl)-1-(4-(o-tolyloxy)piperidin-1-yl)ethanone] |

Source: US12576087B2, “Aryloxypiperidine pyrazole compounds as indoleamine 2,3-dioxygenase inhibitors” (Merck Sharp & Dohme LLC, priority 2018, dated 2026)
